“Also recorded” adds a separate entry of the source. Read-outs that look alike come from different tables or passages of the source.
How the values were obtained:
[1] = tested on: nuclear factor erythroid 2-related factor 2 (Nrf2) pathway; format: cell-based, human; conditions: for ECIR1.5 (effective concentration at an induction ratio of 1.5), Nrf2 activity: MCF7AREc32, 24 h exposure, linear regression; for induction of oxidative stress (Nrf2 activity exceeding a 1.5 induction ratio): MCF7AREc32, noncytotoxic concentrations
[2] = tested on: AR-EcoScreen GR-KO-M1 cell line; conditions: for IC70, cytotoxicity / cytotoxicity (cell viability <80% vs vehicle control): AR-EcoScreen GR-KO-M1, MTS test; for cytotoxicity (cell viability <80% vs vehicle control): up to 10 or 100 mg/L; for IC50: read-out: interpolated IC50, cytotoxicity, AR-EcoScreen, converted to mmol/L
[3] = tested on: DR-EcoScreen cell line; conditions: for IC70, cytotoxicity / cytotoxicity (cell viability <80% vs vehicle control): MTS test; for cytotoxicity (cell viability <80% vs vehicle control): up to 10 or 100 mg/L
[4] = tested on: VM7Luc4E2 cell line; conditions: VM7Luc4E2, ATPase test; for cytotoxicity (cell viability <80% vs vehicle control): up to 10 or 100 mg/L; for IC80: read-out: IC80, cytotoxicity
[5] = tested on: MCF7AREc32 cell line; conditions: for cytotoxicity (cell viability <80% vs vehicle control) / IC70, cytotoxicity: MCF7AREc32, MTS test; for cytotoxicity (cell viability <80% vs vehicle control): up to 10 or 100 mg/L; for IC70, cytotoxicity: 24 h exposure, 70% response relative to vehicle control
[6] = tested on: human bone osteoblasts; parameters: method as in Al-Ghafari et al. [55]; conditions: ref Al-Ghafari et al. [55], read-out: IC50 (MTT assay); cited from earlier work
[7] = tested on: human bone osteoblasts; parameters: method as in Al-Ghafari et al. [55]; conditions: ref Al-Ghafari et al. [55], read-out: IC50 (LDH assay); cited from earlier work
[8] = tested on: rat NR8383 alveolar macrophages; parameters: method as in Huang et al. [69]; conditions: highest tested 200 mg/L, ref Huang et al. [69]; cited from earlier work

| SMILES | ECIR1.5 (effective concentration at an induction ratio of 1.5), Nrf2 activity [1] [mg/L] | IC70, cytotoxicity ([2]; 24 h exposure) [mg/L] | cytotoxicity (cell viability <80% vs vehicle control) [2] | IC70, cytotoxicity ([3]; 24 h exposure) [µg/mL] | cytotoxicity (cell viability <80% vs vehicle control) [3] | cytotoxicity (cell viability <80% vs vehicle control) [4] | cytotoxicity (cell viability <80% vs vehicle control) [5] | further results |
| --- | --- | --- | --- | --- | --- | --- | --- | --- |
| [Ga] [Ga, gallium] | 0.83 | 50 | Cytotoxicity is shown; also recorded: Cytotoxic effects were most clearly observed | 100 | Cytotoxicity is shown; also recorded: Cytotoxic effects were most clearly observed | Cytotoxicity is shown; also recorded: Cytotoxic effects were most clearly observed |  | induction of oxidative stress (Nrf2 activity exceeding a 1.5 induction ratio) [1]: found to induce oxidative stress; IC70, cytotoxicity ([2]; converted from mg/L): 0.72 mmol/L; IC70, cytotoxicity ([3]; converted from mg/L): 1400 µM; IC70, cytotoxicity ([4]; 24 h exposure): 52 µg/mL; IC70, cytotoxicity ([4]; converted from mg/L): 750 µM |
| [Ge] [Ge, germanium] |  |  | Neither Ge nor In exhibited any cytotoxicity |  | Neither Ge nor In exhibited any cytotoxicity | Neither Ge nor In exhibited any cytotoxicity | Neither Ge nor In exhibited any cytotoxicity |  |
| [Pb] [Pb, lead] |  |  |  |  |  |  |  | IC50 [6]: 55 µM; IC50 [7]: 79 µM |
| [Te] [Te, tellurium] |  | 0.28 | Cytotoxicity is shown; also recorded: Cytotoxic effects were most clearly observed | 8.7 | Cytotoxicity is shown; also recorded: Cytotoxic effects were most clearly observed | Cytotoxicity is shown; also recorded: Cytotoxic effects were most clearly observed |  | IC70, cytotoxicity ([2]; converted from mg/L): 2.2 × 10^–3 mmol/L; IC70, cytotoxicity ([3]; converted from mg/L): 68 µM; IC70, cytotoxicity ([4]; 24 h exposure): 1.5 µg/mL; IC70, cytotoxicity ([4]; converted from mg/L): 12 µM |
| [Cd] [Cd, cadmium] | 0.24 | 2.6 | Cytotoxicity is shown; also recorded: cytotoxicity was identified |  | Cytotoxicity is shown; also recorded: cytotoxicity was identified |  | Cytotoxicity is shown; also recorded: cytotoxicity was identified | induction of oxidative stress (Nrf2 activity exceeding a 1.5 induction ratio) [1]: found to induce oxidative stress; IC70, cytotoxicity [5]: 9.1 µg/mL; IC50 ([5]; read-out: interpolated IC50, cytotoxicity, MCF7AREc32, converted to mmol/L): 0.087 mmol/L; IC50 [2]: 0.052 mmol/L; IC50 [6]: 32 µM; IC50 [7]: 63 µM |
| CC(C)(C)c1cc(O)ccc1O [tBHQ, tert-butylhydroquinone] | 0.27 |  |  |  |  |  |  |  |
| [Tl] [Tl, thallium] |  |  |  |  |  | Cytotoxicity is shown; also recorded: more evident | Cytotoxicity is shown; also recorded: Cytotoxicity for Tl was observed | IC80, cytotoxicity ([4]; 24 h exposure): 9.0 µg/mL; IC80 ([4]; converted from mg/L): 44 µM |
| [Gd] [Gd, Gadolinium] |  |  |  |  |  | Cytotoxicity is shown; also recorded: induce cytotoxic effects |  | IC80, cytotoxicity ([4]; 24 h exposure): 3.7 µg/mL; IC80 ([4]; converted from mg/L): 24 µM |
| [Nd] [Nd, Neodymium] |  | 26 | Cytotoxicity is shown; also recorded: Cytotoxic effects were most clearly observed | 31 | Cytotoxicity is shown; also recorded: Cytotoxic effects were most clearly observed | Cytotoxicity is shown; also recorded: Cytotoxic effects were most clearly observed |  | IC70, cytotoxicity ([2]; converted from mg/L): 0.18 mmol/L; IC70, cytotoxicity ([3]; converted from mg/L): 210 µM; IC70, cytotoxicity ([4]; 24 h exposure): 24 µg/mL; IC70, cytotoxicity ([4]; converted from mg/L): 170 µM |
| [As] [As, arsenic, reference compound] | 0.11 |  | Cytotoxicity is shown; also recorded: cytotoxicity was identified | 0.83 | Cytotoxicity is shown; also recorded: cytotoxicity was identified |  | Cytotoxicity is shown; also recorded: cytotoxicity was identified | induction of oxidative stress (Nrf2 activity exceeding a 1.5 induction ratio) [1]: found to induce oxidative stress; IC70, cytotoxicity [5]: 8.1 µg/mL; IC50 [2]: 0.17 mmol/L; IC50 ([3]; read-out: interpolated IC50, cytotoxicity, converted to mmol/L): 0.014 mmol/L |
| [Nd+3].[Nd+3].[O-2].[O-2].[O-2] [Nd2O3] |  |  |  |  |  |  |  | concentration up to which no noticeable cytotoxicity was observed [8]: 6250 ng/mL |
| [Yb] [Yb, Ytterbium] |  |  |  |  |  | Cytotoxicity is shown; also recorded: induce cytotoxic effects |  | IC80, cytotoxicity ([4]; 24 h exposure): 33 µg/mL; IC80 ([4]; converted from mg/L): 190 µM |
